Results: patent US20190091173A1, “METHOD OF […] BETWEEN […]” (ZOGENIX INTERNATIONAL LIMITED, priority 2017, published 2019)

What was measured:
[1] = tested on: convulsive seizures in subjects with Dravet syndrome; test: Study 1 (ZX008-1501/ZX008-1502), Phase 3, randomized, double-blind, placebo-controlled; assay type: in vivo, human; conditions: 0.2 mg/kg/day, end of T+M Period, SD 140.46, p=0.735
Method: The first 119 subjects to be randomized in both identical studies combined were analyzed and reported as Study 1 (FIG. 1), covered by a Statistical Analysis Plan (SAP).
Primary and key secondary endpoints in the Study 1 SAP were pre-determined. All patients were treated twice per day over a period of 14 weeks using an oral syringe to administer the formulation. The treatment period included a two-week titration period and a 12-week maintenance period.
The initial results of Study 1 are outlined below. The randomized, double blind, placebo controlled, Phase 3 study enrolled 119 patients across sites in the United States, Canada, Europe and Australia. The median age of patients was 8 years, the mean age of patients was 9 years (range, 2-18 years) (FIG. 2).
Patients were titrated to their target dose over two weeks, and then remained at that fixed dose for 12 weeks. The mean baseline convulsive seizure frequency across the study groups was approximately 40 seizures per month. 110 (92%) patients completed the study (85% 0.8 mg/kg/day; 100% 0.2 mg/kg/day; 93% placebo). […]
The mean number of convulsive seizure free days, defined as a day for which diary data are available and no convulsive seizures have been reported, was determined for each treatment group during the Baseline and T+M Periods. […]

[2] = tested on: seizures in patients with Dravet syndrome; conditions: long-term fenfluramine treatment; cited from earlier work

**Q.** Which “reduction from Baseline in non-convulsive seizures (all types) per 28 days” value [1] does the source give for `CCNC(C)Cc1cccc(C(F)(F)F)c1` (stereo not shown) [Fenfluramine, 3-trifluoromethyl-N-ethylamphetamine] here?
**A.** 9.7%

**Q.** And the “effect on types of seizures” value [2]?
**A.** effectively reduced the incidence of all types of seizures

**Q.** And the reduction in seizures [2]?
**A.** 75%

**Q.** And the “test subjects in seizure-free condition” value [2]?
**A.** 66.6%
